This is an account of results in patent publication US6558671B1, “Cysteine-depleted peptides recognized by A3-restricted cytotoxic lymphocytes, and uses therefor” (The University of Virginia Patent Foundation, priority 1997, dated 2003).

pEC50: −log10 of the molar value. “Also recorded” adds a separate entry of the source. Read-outs that look alike come from different tables or passages of the source.

The test system of test [1] is HLA-A1-restricted VMM15 CTL. The test is described as follows: 4-hour chromium release assay, peptide-pulsed C1R-A1 targets with VMM15 CTL. In kind it is cell-based, human. Particulars: for CTL recognition compared with the wild-type peptide: alanine or serine substituted peptides, FIG. 8; for reconstitution of an epitope for VMM15 CTL / recognition by VMM15 CTL: C1R-A1 cells pulsed with synthetic peptide at 0.1 to 10 uM, FIG. 3; for recognition of peptide-pulsed C1R-A1 cells in dose-titration assay: HPLC-purified peptides, FIG. 7; for recognition by VMM15 CTL in peptide screening: screen of tyrosinase peptides matching the HLA-A1 motif, one experiment with 48 peptides.

Test [2] deals with VMM15 CTL. The test is described as follows: Cold target inhibition assay with VMM15 CTL. Particulars: for inhibition of lysis of labeled peptide-pulsed targets by unlabeled targets pulsed with the peptide: VMM15 EBV targets pulsed at 20 μg/ml, effector-to-labeled target ratio 10:1, FIG. 9. In kind it is cell-based, human. The procedure:
FIG. 9. […] (SEQ ID NO:73) for recognition by VMM15 CTL. […] (SEQ ID NO:79), or no peptide, as indicated. Increasing numbers of these various unlabeled targets were pre-incubated with VMM15 CTL for 1 hour at 37° C. Labeled (hot) targets were then added for an additional 4 hour co-culture at a final effector-to-labeled target ratio of 10:1.
(SEQ ID NO:19), and because of the similar dose-titration curves observed for CTL recognition (FIG. […] (SEQ ID NO:19)) of both peptides adopt a similar conformation when bound to HLA-A1. A cold target inhibition assay was performed with peptide-pulsed target cells to test that hypothesis.

Test [3] relates to VMM12 CTL. The test is described as follows: 4-hour chromium release assay, peptide-pulsed C1R-A1 targets with VMM12 CTL. In kind it is cell-based, human. Particulars: C1R-A1 cells pulsed with peptide at 1 to 0.01 μM; FIG. 4.
Test [4] concerns H-Y specific CTL. Particulars: cited from earlier work.
Setting [5] is: C1R-A1 targets, E:T 25:1, FIG. 8A, read-out: half-maximal lysis, nonamer.

Turning to “KADICTDEY [nonamer with alanine replacing the cysteine at position 2]”, the pEC50 in test [1] (setting [5]) is 7.70. For the same sequence, the “CTL recognition compared with the wild-type peptide” value in test [1] is listed as “significantly greater recognition”.

Take “KSDICTDEY [nonamer with serine replacing the cysteine at position 2]”: in test [2], the “inhibition of lysis of labeled peptide-pulsed targets by unlabeled targets pulsed with the peptide” value was “similarly inhibited”. The pEC50 in test [1] (setting [5]) is 8.70. Also, the “CTL recognition compared with the wild-type peptide” value in test [1] was “significantly greater recognition”.

As for KCDICTDEY, in test [1], the “reconstitution of an epitope for VMM15 CTL / recognition by VMM15 CTL” value is listed as “reconstitutes an epitope for VMM15 CTL; also recorded: most effective; also recorded: reconstituted” and the “recognition by VMM15 CTL in peptide screening” value is given as “recognized”. For the same sequence, in test [1] (Example A1-1), the half-maximal lysis result is “approximately 1 ug/ml”. In addition, the pEC50 in test [1] (Example A1-1, read-out: half-maximal lysis) is about 6.00. For the same sequence, the “recognition of peptide-pulsed C1R-A1 cells in dose-titration assay” value in test [1] (E:T 25:1) is reported as “equally reactive”.

As to “DAEKADICTDEY [dodecamer with alanine replacing the cysteine at position 5]”, the pEC50 in test [1] (C1R-A1 targets, E:T 10:1, FIG. 8B, read-out: half-maximal lysis, dodecamer) is about 7.00. Also, in test [1], the “CTL recognition compared with the wild-type peptide” value is “significantly greater recognition”.

With EKCDICTDEY, in test [1], the “reconstitution of an epitope for VMM15 CTL / recognition by VMM15 CTL” value is listed as “recognized; also recorded: reconstituted” and the “recognition by VMM15 CTL in peptide screening” value was “recognized”. In test [1] (E:T 25:1), the “recognition of peptide-pulsed C1R-A1 cells in dose-titration assay” value is reported as “equally reactive”.

Consider “KCDIATDEY [nonamer with alanine substituted for the cysteine distal to the N-terminus]”, for which the “CTL recognition compared with the wild-type peptide” value in test [1] is on record as “not discernibly more effective than the wild-type peptide”.

As for DAEKCDICTDEY, the “inhibition of lysis of peptide-pulsed targets by cold wild-type VMM15 tumor cells” value in test [2] (targets pulsed with peptide at 50 μg/ml) was “can be inhibited”. In test [1], the “reconstitution of an epitope for VMM15 CTL / recognition by VMM15 CTL” value is “recognized; also recorded: reconstituted” and the “recognition by VMM15 CTL in peptide screening” value was “recognized”. Besides, the pEC50 in test [1] (C1R-A1 targets, E:T 10:1, FIG. 8B, read-out: half-maximal sensitization of target cells for lysis, dodecamer) is 5.00. Further, in test [3], the “reconstitution of an epitope for VMM12 CTL” value is listed as “reconstituted an epitope for these VMM12 CTL, although weakly”.

Take “KCDISTDEY [nonamer with serine substituted for the cysteine distal to the N-terminus]”: the “CTL recognition compared with the wild-type peptide” value in test [1] is on record as “not discernibly more effective than the wild-type peptide”.

With “DAEKSDICTDEY [dodecamer with serine replacing the more N-terminal cysteine]”, the “inhibition of lysis of labeled peptide-pulsed targets by unlabeled targets pulsed with the peptide” value in test [2] is “competes”.

Turning to FIDSYICQV, the “effect of cysteinylation of the cysteine on recognition” value in test [4] was “improving recognition by one clone, and reducing recognition by another”.

Turning to “DAEKCDIATDEY [dodecamer with alanine substituted for the cysteine at position 8]”, the “CTL recognition compared with the wild-type peptide” value in test [1] was “prevented recognition at every concentration tested”.
